From paper PMC3397156 (Chembiochem, 2010)

Molecular target: T1, PatD (Prochloron didemni, UniProt Q52QI6)
T1 sequence (Q52QI6 1-784): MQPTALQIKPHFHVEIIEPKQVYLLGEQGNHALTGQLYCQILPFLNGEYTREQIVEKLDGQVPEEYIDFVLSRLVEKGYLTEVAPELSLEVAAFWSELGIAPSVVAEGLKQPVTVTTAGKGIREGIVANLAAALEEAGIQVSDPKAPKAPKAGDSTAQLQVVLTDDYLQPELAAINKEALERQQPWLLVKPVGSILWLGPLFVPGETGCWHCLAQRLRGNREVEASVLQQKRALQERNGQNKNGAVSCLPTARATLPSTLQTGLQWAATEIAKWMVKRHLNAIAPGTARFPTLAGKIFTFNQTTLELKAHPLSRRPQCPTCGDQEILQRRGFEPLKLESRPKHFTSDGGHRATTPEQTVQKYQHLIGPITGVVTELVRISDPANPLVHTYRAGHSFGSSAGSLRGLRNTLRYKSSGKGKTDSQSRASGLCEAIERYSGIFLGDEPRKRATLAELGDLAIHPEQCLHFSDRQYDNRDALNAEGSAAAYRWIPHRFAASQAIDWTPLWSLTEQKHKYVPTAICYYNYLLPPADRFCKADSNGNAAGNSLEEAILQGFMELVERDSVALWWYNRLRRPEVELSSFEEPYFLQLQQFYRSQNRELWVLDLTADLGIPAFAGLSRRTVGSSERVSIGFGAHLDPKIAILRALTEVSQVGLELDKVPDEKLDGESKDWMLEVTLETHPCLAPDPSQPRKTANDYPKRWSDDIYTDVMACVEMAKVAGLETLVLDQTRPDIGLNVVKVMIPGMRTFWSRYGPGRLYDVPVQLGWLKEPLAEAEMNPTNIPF
Conditions: ATP 100 μM, TruE2 2 μM, PatD 0.6 μM, MgCl2, DTT, 30 min

HPLC of ATP hydrolysis to ADP: ATP was shown to be hydrolyzed to ADP
SMILES: Nc1ncnc2c1ncn2[C@@H]1O[C@H](COP(=O)(O)OP(=O)(O)OP(=O)(O)O)[C@@H](O)[C@H]1O [ATP]
